In the supplement of paper PMC10627819:

How the values were obtained:
B. subtilis 168 = test: Bliss interaction score (quartile over a dose matrix) (fitness difference); higher = more antagonism (negative = synergy)
In short: (§1)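 The Bliss score is observed minus expected fitness, where expected fitness is the product of the single-drug fitness values inferred from the combination data. Fitness is the OD595 at the onset of stationary phase over the plate's robust no-drug mean, capped at 1. Scores are summarised by quartiles over technical, biological and donor/recipient replicates.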

S. aureus DSM 20231 [1] = test: as above
In short: as §1

S. pneumoniae D39V [2] = test: as above
In short: as §1

S. aureus Newman [3] = test: as above
In short: as §1

S. aureus DSM 20231 [4] = test: fitness (endpoint OD595 vs no drug) (fraction); higher = more growth
In short: (§2)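 Fitness was defined as the optical density at the transition into stationary phase relative to the robust mean of no-drug control wells. Values were capped at 1. Cultures were started at OD595 0.01 in 384-well plates (30 µl, or 55 µl for S. pneumoniae) in TSB, LB Lennox or CY at 37 °C. OD595 was recorded every 30 min over 14 h, with the first reading subtracted as background.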

S. pneumoniae D39V [5] = test: as above
In short: as §2

S. aureus Newman [6] = test: as above
In short: as §2
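Wherever Bliss interaction score (quartile over a dose matrix) is given: first quartile when negative (synergy) and third quartile when positive (antagonism).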

COc1c(N2C[C@@H]3CCCN[C@@H]3C2)c(F)cc2c(=O)c(C(=O)O)cn(C3CC3)c12 [Moxifloxacin] + CN[C@H](CC(C)C)C(=O)N[C@H]1C(=O)N[C@@H](CC(N)=O)C(=O)N[C@H]2C(=O)N[C@H]3C(=O)N[C@H](C(=O)N[C@H](C(=O)O)c4cc(O)cc(O)c4-c4cc3ccc4O)[C@H](O)c3ccc(c(Cl)c3)Oc3cc2cc(c3O[C@@H]2O[C@H](CO)[C@@H](O)[C@H](O)[C@H]2O[C@H]2C[C@](C)(N)[C@H](O)[C@H](C)O2)Oc2ccc(cc2Cl)[C@H]1O [Vancomycin]
Settings	Bliss interaction score
B. subtilis 168	0.031
S. aureus DSM 20231 [1]	-0.0583
S. aureus Newman [3]	-0.0617
S. pneumoniae D39V [2]	0.0942

Settings	fitness
S. aureus DSM 20231 [4], first compound 0.0075 µg/mL, partner 0.1875 µg/mL	0.818
S. aureus DSM 20231 [4], first compound 0.0075 µg/mL, partner 0.375 µg/mL	0.854
S. aureus DSM 20231 [4], first compound 0.0075 µg/mL, partner 0.75 µg/mL	0.853
S. aureus DSM 20231 [4], first compound 0.015 µg/mL, partner 0.1875 µg/mL	0.745
S. aureus DSM 20231 [4], first compound 0.015 µg/mL, partner 0.375 µg/mL	0.761
S. aureus DSM 20231 [4], first compound 0.015 µg/mL, partner 0.75 µg/mL	0.84
S. aureus DSM 20231 [4], first compound 0.03 µg/mL, partner 0.1875 µg/mL	0.667
S. aureus DSM 20231 [4], first compound 0.03 µg/mL, partner 0.375 µg/mL	0.689
S. aureus DSM 20231 [4], first compound 0.03 µg/mL, partner 0.75 µg/mL	0.652
S. aureus Newman [6], first compound 0.0075 µg/mL, partner 0.1875 µg/mL	0.768
S. aureus Newman [6], first compound 0.0075 µg/mL, partner 0.375 µg/mL	0.75
S. aureus Newman [6], first compound 0.0075 µg/mL, partner 0.75 µg/mL	0.768
S. aureus Newman [6], first compound 0.015 µg/mL, partner 0.75 µg/mL	0.518
S. aureus Newman [6], first compound 0.03 µg/mL, partner 0.375 µg/mL	0.0717
S. aureus Newman [6], first compound 0.03 µg/mL, partner 0.75 µg/mL	0.0889
S. pneumoniae D39V [5], first compound 0.0037 µg/mL, partner 0.03125 µg/mL	0.881
S. pneumoniae D39V [5], first compound 0.005 µg/mL, partner 0.125 µg/mL	0.909
S. pneumoniae D39V [5], first compound 0.0075 µg/mL, partner 0.03125 µg/mL	0.908
S. pneumoniae D39V [5], first compound 0.0075 µg/mL, partner 0.0625 µg/mL	0.853
S. pneumoniae D39V [5], first compound 0.0075 µg/mL, partner 0.125 µg/mL	0.753
S. pneumoniae D39V [5], first compound 0.01 µg/mL, partner 0.125 µg/mL	0.92
S. pneumoniae D39V [5], first compound 0.015 µg/mL, partner 0.03125 µg/mL	0.897
S. pneumoniae D39V [5], first compound 0.015 µg/mL, partner 0.0625 µg/mL	0.848
S. pneumoniae D39V [5], first compound 0.015 µg/mL, partner 0.125 µg/mL	0.689
S. pneumoniae D39V [5], first compound 0.02 µg/mL, partner 0.125 µg/mL	0.913

fitness, S. aureus DSM 20231 [4], one replicate
Settings	partner 0.1875 µg/mL	partner 0.375 µg/mL	partner 0.75 µg/mL
first compound 0.06 µg/mL	0.688	0.694	0.704
first compound 0.12 µg/mL	0.46	0.455	0.46

COc1c(N2C[C@@H]3CCCN[C@@H]3C2)c(F)cc2c(=O)c(C(=O)O)cn(C3CC3)c12 [Moxifloxacin] + Cn1nnc(-c2ccc(-c3ccc(N4C[C@H](CO)OC4=O)cc3F)cn2)n1 [Tedizolid]
Settings	Bliss interaction score
B. subtilis 168	-0.0253
S. aureus DSM 20231 [1]	0.103
S. aureus Newman [3]	0.0881
S. pneumoniae D39V [2]	-0.0629

fitness
Settings	partner 0.03125 µg/mL	partner 0.0625 µg/mL	partner 0.125 µg/mL	partner 0.25 µg/mL	partner 0.5 µg/mL
S. aureus DSM 20231 [4], first compound 0.0075 µg/mL	–	0.813	0.765	0.411	–
S. aureus DSM 20231 [4], first compound 0.015 µg/mL	–	0.755	0.704	0.453	–
S. aureus DSM 20231 [4], first compound 0.03 µg/mL	–	0.682	0.7	0.653	–
S. aureus Newman [6], first compound 0.0075 µg/mL	–	0.755	0.737	0.41	–
S. aureus Newman [6], first compound 0.015 µg/mL	–	0.587	0.581	0.291	–
S. aureus Newman [6], first compound 0.03 µg/mL	–	–	0.343	0.178	–
S. pneumoniae D39V [5], first compound 0.0037 µg/mL	0.887	0.877	0.741	–	–
S. pneumoniae D39V [5], first compound 0.005 µg/mL	–	–	0.851	0.8	0.441
S. pneumoniae D39V [5], first compound 0.0075 µg/mL	0.904	0.871	0.761	–	–
S. pneumoniae D39V [5], first compound 0.01 µg/mL	–	–	0.857	0.775	0.466
S. pneumoniae D39V [5], first compound 0.015 µg/mL	0.897	0.822	0.761	–	–
S. pneumoniae D39V [5], first compound 0.02 µg/mL	–	–	0.842	0.778	0.49

fitness, S. aureus DSM 20231 [4], one replicate
Settings	partner 0.0625 µg/mL	partner 0.125 µg/mL	partner 0.25 µg/mL
first compound 0.06 µg/mL	0.67	0.69	0.727
first compound 0.12 µg/mL	0.511	0.539	0.595
